In patent publication US20250230138A1, “COMPOUNDS HAVING A T-STRUCTURE FORMED BY AT LEAST FOUR CYCLES FOR USE IN THE TREATMENT OF CANCER AND OTHER INDICATIONS” (TheRas, Inc., priority 2022, published 2025):
pIC50: −log10 of the molar value. Like-named read-outs stand apart in the source and are kept apart here.

What was measured:
pAKT in BT474 cells = test: Cell-based pAKT HTRF assay in BT474 cells; details: BT474 cells, 4 hr incubation, read-out: pAKT inhibition IC50 in BT474 cells
Outline: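 Treatment lasts 4 hr in DMEM/10% FBS at 0.25% DMSO over nine 3-fold dilutions from 3 μM. The lysate is then probed by HTRF.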

[1] = biological target: Cys242 in human PIK3CA (157-299) (Homo sapiens (Human), UniProt P42336); test: Covalent modification assay using MALDI-TOF MS; assay type: biochemical; details: 4 h reaction time point
Chain of Cys242 in human PIK3CA (157-299) (P42336 157-299): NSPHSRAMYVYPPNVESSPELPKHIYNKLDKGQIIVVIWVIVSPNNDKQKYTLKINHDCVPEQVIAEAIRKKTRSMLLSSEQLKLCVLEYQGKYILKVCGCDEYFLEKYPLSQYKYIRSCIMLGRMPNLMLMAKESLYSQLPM
Outline: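 PIK3CA (157-299), 3.33 or 1 μM in 20 mM HEPES, 150 mM NaCl, 2 mM MgCl2, pH 7.3, was incubated with compound at room temperature in the dark for 15 min, 30 min, 2 h or 4 h. Linear MALDI-TOF read-out; % modification = adduct peak height over summed heights of all protein species.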

[2] = 3.33 μM protein target, 1:7.5 protein to compound ratio (compounds 1-852)
[3] = 1 μM protein target, 1:5 protein to compound ratio (compounds 853-1279)

Row | pIC50 (pAKT in BT474 cells; Compounds 10-999) | pIC50 (pAKT in BT474 cells; Compounds 1000-1279) | pIC50 (pAKT in BT474 cells; Homo sapiens, BT-474, Compounds 10-999) | SMILES | % of modification [1, 2] | % of modification [1, 3]
1 | > 7.00 |  |  | C=CC(=O)N1CCn2nc(-c3nc(-c4cn(C)cn4)c4ccsc4c3-c3c(F)cc(F)cc3OCCOC)cc2[C@H]1C [Compound 741] | A (percent of modification of PIK3CA protein ≥75%) | 
2 |  | > 7.00 |  | C=CC(=O)N1CCn2nc(-c3nc(-c4ccn5cncc5c4)c4ccsc4c3-c3c(F)cc(F)cc3OCCOC)cc2C1C (stereo not drawn) [Compound 1074] |  | A (percent of modification of PIK3CA protein ≥75%)
3 | > 7.00 |  |  | C=CC(=O)N1CCn2nc(-c3nc(-c4cn(C)cn4)c4ccsc4c3-c3c(F)cc(F)cc3OCCO)cc2C1C (stereo not drawn) [Compound 786] | A (percent of modification of PIK3CA protein ≥75%) | 
4 |  | > 7.00 |  | C=CC(=O)N1CCn2nc(-c3nc(-c4ccc(N5CCN(C)CC5)cc4)c4ccsc4c3-c3c(F)cc(F)cc3OCCOC)cc2C1C (stereo not drawn) [Compound 1082] |  | A (percent of modification of PIK3CA protein ≥75%)
5 | > 7.00 |  |  | C=CC(=O)N1Cc2cc(-c3nc(-c4cnn(CC(F)F)c4)c4ccsc4c3-c3c(F)cc(F)cc3OCCOC)nn2C[C@H]1C [Compound 727] | A (percent of modification of PIK3CA protein ≥75%) | 
6 | 5.52 to 6.00 |  |  | C=CC(=O)N1Cc2cc(-c3nc(-c4cnn(C)c4)c4ccsc4c3-c3c(F)cc(F)cc3OCCOC)nn2C[C@H]1C [Compound 578] | D (percent of modification <25%) | 
7 | > 7.00 |  |  | C=CC(=O)N1CCn2nc(-c3nc(-c4ccc5ncn(C)c(=O)c5c4)c4ccsc4c3-c3c(F)cc(F)cc3OCCOC)cc2C1C (stereo not drawn) [Compound 925] |  | A (percent of modification of PIK3CA protein ≥75%)
8 | > 7.00 |  |  | C=CC(=O)N1CCn2nc(-c3nc(-c4ccc5c(c4)CCN(C)C5)c4ccsc4c3-c3ccc(F)cc3OCCOC)cc2C1 [Compound 242] | A (percent of modification of PIK3CA protein ≥75%) | 
9 | > 7.00 |  |  | C=CC(=O)N1CCc2nc(-c3nc(-c4cnc5c(c4)CCN(C)C5)c4ccsc4c3-c3c(F)cc(F)cc3OCCOC)sc2C1 [Compound 521] | A (percent of modification of PIK3CA protein ≥75%) | 
10 | > 7.00 |  |  | C=CC(=O)N1CCn2nc(-c3nc(-c4ccc5cnn(C)c(=O)c5c4)c4ccsc4c3-c3c(F)cc(F)cc3OCCOC)cc2C1C (stereo not drawn) [Compound 928] |  | A (percent of modification of PIK3CA protein ≥75%)
11 | > 7.00 |  |  | C=CC(=O)N1CCn2nc(-c3nc(-c4ccc5c(c4)CCN(C)C5)c4ccsc4c3-c3c(F)cc(F)cc3OCC(C)O)cc2C1C (stereo not drawn) [Compound 550] | A (percent of modification of PIK3CA protein ≥75%) | 
12 | > 7.00 |  |  | C=CC(=O)N1Cc2cc(-c3nc(-c4cnc5c(c4)CNC(=O)C5)c4ccsc4c3-c3c(F)cc(F)cc3OCCOC)nn2[C@@H](C)C1 [Compound 515] | A (percent of modification of PIK3CA protein ≥75%) | 
13 |  | < 6.00 |  | C=CC(=O)N1CCc2cc(-c3nc(-c4cnc5c(c4)CNC(=O)C5)c4ccsc4c3-c3c(F)cc(F)cc3OCCOC)nn2CC1 [Compound 1005] |  | D (percent of modification <25%)

Second part, the compound before the results:

Row | SMILES | pIC50 (pAKT in BT474 cells; Compounds 10-999) | pIC50 (pAKT in BT474 cells; Compounds 1000-1279) | pIC50 (pAKT in BT474 cells; Homo sapiens, BT-474, Compounds 10-999) | % of modification [1, 2] | % of modification [1, 3]
14 | C=CC(=O)N1Cc2cc(-c3nc(-c4cnn(C)c4)c4ccsc4c3-c3c(F)cc(F)cc3OC)nn2C[C@H]1C [Compound 820] | > 7.00 |  |  | A (percent of modification of PIK3CA protein ≥75%) | 
15 | C=CC(=O)N1CCc2nc(-c3nc(-c4cnn(C)c4)c4ccsc4c3-c3c(F)cc(F)cc3OC(C)C)sc2C1 [Compound 339] | > 7.00 |  |  | A (percent of modification of PIK3CA protein ≥75%) | 
16 | C=CC(=O)N1CC(n2nc(-c3nc(-c4ccc5c(c4)CCNC5)c4ccsc4c3-c3ccc(F)cc3OCCOC)ccc2=O)C1 [Compound 204] | 6.00 to 7.00 |  |  | B (50%<percent of modification <75%) | 
17 | C=CC(=O)N1CCc2nc(-c3nc(-c4ccc5c(c4)CCC(N(C)C)C5)c4ccsc4c3-c3ccc(F)cc3OCCOC)sc2C1 (stereo not drawn) [Compound 148] | > 7.00 |  |  | A (percent of modification of PIK3CA protein ≥75%) | 
18 | C=CC(=O)N1CCc2ccc(-c3nc(-c4ccc5c(c4)CN(CCOC)CC5(F)F)c4ccsc4c3-c3c(F)cc(F)cc3OCCOC)cc2C1 [Compound 1277] |  | < 6.00 |  |  | D (percent of modification <25%)
19 | C=CC(=O)N1CCn2nc(-c3cc(-c4cnn(C)c4)cnc3-c3ccc(F)cc3OCCOC)cc2C1 [Compound 281, 1-[2-[2-[4-fluoro-2-(2-methoxyethoxy)phenyl]-5-(1-methylpyrazol-4-yl)-3-pyridyl]-6,7-dihydro-4H-pyrazolo[1,5-a]pyrazin-5-yl]prop-2-en-1-one] |  |  | < 5.52 | C (25%≤percent of modification <50%) | 
20 | C=CC(=O)N1CC(n2cc(-c3nc(-c4ccc5c(c4)CS(=O)(=O)C5)c4ccsc4c3-c3ccc(F)cc3OC)cn2)C1 [Compound 95] | > 7.00 |  |  | A (percent of modification of PIK3CA protein ≥75%) | 
21 | C=CC(=O)N1CCn2cc(-c3nc(-c4ccc(=O)n(C)c4)c4ccsc4c3-c3ccc(F)cc3OC(C)C)nc2C1 [Compound 272] | > 7.00 |  |  | A (percent of modification of PIK3CA protein ≥75%) | 
22 | C=CC(=O)N1CCn2nc(-c3nc(-c4ccc5c(cnn5C)c4)c4ccsc4c3-c3c(F)cc(F)cc3OC)cc2C1C (stereo not drawn) [Compound 1115] |  | > 7.00 |  |  | A (percent of modification of PIK3CA protein ≥75%)
23 | C=CC(=O)N1CCn2nc(-c3nc(-c4ccc5c(c4)CCNC5)c4ccsc4c3-c3ccc(F)cc3OCC3CCNC(=O)C3)cc2C1 (stereo not drawn) [Compound 261] | > 7.00 |  |  | A (percent of modification of PIK3CA protein ≥75%) | 
24 | C=CC(=O)N1CCc2nc(-c3nc(-c4ccc5c(c4)CCNCC5)c4ccsc4c3-c3ccc(F)cc3OCCOC)sc2C1 [Compound 121] | > 7.00 |  |  | A (percent of modification of PIK3CA protein ≥75%) | 
25 | C=CC(=O)N1CC[C@H](n2cc(-c3nc(-c4ccc5c(c4)CNC5=O)c4ccsc4c3-c3ccc(F)cc3OC(C)C)cn2)C1 [Compound 328] | > 7.00 |  |  | A (percent of modification of PIK3CA protein ≥75%) | 
26 | C=CC(=O)N1CCn2nc(-c3nc(-c4ccc5c(c4)CCN(C(C)C)C5)c4ccsc4c3-c3ccc(F)cc3OC(F)F)cc2C1 [Compound 244] | > 7.00 |  |  | A (percent of modification of PIK3CA protein ≥75%) | 
27 | C=CC(=O)N1Cc2cc(-c3nc(-c4ccc5c(cnn5C)c4)c4ccsc4c3-c3c(F)cc(F)cc3OC[C@@H](C)O)nn2[C@@H](C)C1 [Compound 609] | > 7.00 |  |  | A (percent of modification of PIK3CA protein ≥75%) | 
28 | C=C(F)C(=O)N1CCn2nc(-c3nc(-c4ccc5c(c4)CCN(C)C5)c4ccsc4c3-c3ccc(F)cc3OC(C)C)cc2C1 [Compound 293] | > 7.00 |  |  | A (percent of modification of PIK3CA protein ≥75%) | 
29 | C=CC(=O)N1CCn2nc(-c3nc(-c4cnnc(C)c4)c4ccsc4c3-c3c(F)cc(F)cc3OCC(C)O)cc2C1C (stereo not drawn) [Compound 823] | > 7.00 |  |  | A (percent of modification of PIK3CA protein ≥75%) | 
30 | C=CC(=O)N1CCn2nc(-c3nc(-c4ccc5nncn5c4)c4ccsc4c3-c3c(F)cc(F)cc3OC[C@@H](C)O)cc2[C@H]1C [Compound 897] | > 7.00 |  |  |  | A (percent of modification of PIK3CA protein ≥75%)
